In patent US11198713B2, “Agents modulating beta-catenin functions and methods thereof” (FOG PHARMACEUTICALS, INC., priority 2017, dated 2021):

Biological target: T1, full-length beta-catenin (Axin site) (Homo sapiens, UniProt P35222)
T1 construct: 15 nM full-length beta-catenin, 20 nM FITC labeled peptide in buffer
T1 sequence (P35222 1-781): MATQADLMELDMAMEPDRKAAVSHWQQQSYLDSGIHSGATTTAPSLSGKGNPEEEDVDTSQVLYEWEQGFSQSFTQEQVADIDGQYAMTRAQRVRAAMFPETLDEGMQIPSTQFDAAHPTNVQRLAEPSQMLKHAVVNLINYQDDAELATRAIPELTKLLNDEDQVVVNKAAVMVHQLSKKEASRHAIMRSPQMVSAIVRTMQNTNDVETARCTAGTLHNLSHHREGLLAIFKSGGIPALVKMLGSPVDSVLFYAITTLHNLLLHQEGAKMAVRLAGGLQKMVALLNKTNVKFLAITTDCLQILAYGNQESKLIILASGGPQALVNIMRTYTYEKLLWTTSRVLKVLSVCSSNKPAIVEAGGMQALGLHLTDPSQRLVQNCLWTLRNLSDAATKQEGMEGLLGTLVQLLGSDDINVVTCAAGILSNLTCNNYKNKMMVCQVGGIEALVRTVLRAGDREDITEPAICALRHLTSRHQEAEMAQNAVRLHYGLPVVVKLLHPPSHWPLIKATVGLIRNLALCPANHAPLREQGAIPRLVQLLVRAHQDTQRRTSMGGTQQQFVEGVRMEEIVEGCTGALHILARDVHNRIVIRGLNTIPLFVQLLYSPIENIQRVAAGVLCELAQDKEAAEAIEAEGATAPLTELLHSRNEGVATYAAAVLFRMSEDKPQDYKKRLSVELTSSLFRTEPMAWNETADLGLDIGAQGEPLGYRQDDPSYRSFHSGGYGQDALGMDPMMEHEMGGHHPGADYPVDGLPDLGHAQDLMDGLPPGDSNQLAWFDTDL
Assay: Competition fluorescence polarization assay (Axin site probe)
Assay type: binding
Details: competition fluorescence polarization, Table 2; read-out: in vitro FP EC50
Procedure, shortened: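 Competition FP: 15 nM full-length β-catenin pre-incubated 5 min with 20 nM FITC-labelled stapled Axin-site peptide, then titrated peptide added (3-fold series from 5 μM) for 15 min in the dark. Buffer 50 mM Tris pH 8.0, 250 mM NaCl, 2% glycerol, 0.5 mM EDTA; duplicate reads.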

Compound	EC50 [nM]
CC[C@H](C)[C@@H]1NC(=O)[C@]2(NC(=O)[C@H](CCC(N)=O)NC(=O)[C@@H]3CCCN3C(C)=O)CCN(C2)C(=O)OCC=CCCCC[C@@](C)(C(=O)N[C@@H](Cc2c[nH]cn2)C(=O)N[C@H](C(=O)N[C@@H](CCCNC(=N)N)C(=O)N[C@@H](CCCNC(=N)N)C(=O)N[C@H](C(=O)N[C@@H](Cc2c[nH]c3ccccc23)C(=O)N[C@@H](CCCNC(=N)N)C(N)=O)C(C)C)C(C)C)NC(=O)[C@H](CC(=O)O)NC(=O)[C@H](CC(C)C)NC1=O (single isomer, unassigned) [FP0752c, Ac-P-Q-MB-I-L-D-S6-H-V-R-R-V-W-R-NH2]	500 to 5000
CC[C@H](C)[C@@H]1NC(=O)[C@]2(NC(=O)[C@H](CCC(N)=O)NC(=O)[C@@H]3CCCN3C(C)=O)CCN(CC=CCCCCC[C@@](C)(C(=O)N[C@@H](Cc3c[nH]cn3)C(=O)N[C@H](C(=O)N[C@@H](CCCNC(=N)N)C(=O)N[C@@H](CCCNC(=N)N)C(=O)N[C@H](C(=O)N[C@@H](Cc3c[nH]c4ccccc34)C(=O)N[C@@H](CCCNC(=N)N)C(N)=O)C(C)C)C(C)C)NC(=O)[C@H](CC(=O)O)NC(=O)[C@H](CC(C)C)NC1=O)C2 (single isomer, unassigned) [FP0753a, Ac-P-Q-MB-I-L-D-S7-H-V-R-R-V-W-R-NH2]	> 5000
CC[C@H](C)[C@@H]1NC(=O)[C@](C)(NC(=O)[C@H](CCC(N)=O)NC(=O)[C@@H]2CCCN2C(C)=O)CCCC=CCN2CC[C@@](C(=O)N[C@@H](Cc3c[nH]cn3)C(=O)N[C@H](C(=O)N[C@@H](CCCNC(=N)N)C(=O)N[C@@H](CCCNC(=N)N)C(=O)N[C@H](C(=O)N[C@@H](Cc3c[nH]c4ccccc34)C(=O)N[C@@H](CCCNC(=N)N)C(N)=O)C(C)C)C(C)C)(C2)NC(=O)[C@H](CC(=O)O)NC(=O)[C@H](CC(C)C)NC1=O (single isomer, unassigned) [FP0758a, Ac-P-Q-R5-I-L-D-MB-H-V-R-R-V-W-R-NH2]	> 5000
CC[C@H](C)[C@@H]1NC(=O)[C@](C)(NC(=O)[C@H](CCC(N)=O)NC(=O)[C@@H]2CCCN2C(C)=O)CCCC=CCOC(=O)N2CC[C@@](C(=O)N[C@@H](Cc3c[nH]cn3)C(=O)N[C@H](C(=O)N[C@@H](CCCNC(=N)N)C(=O)N[C@@H](CCCNC(=N)N)C(=O)N[C@H](C(=O)N[C@@H](Cc3c[nH]c4ccccc34)C(=O)N[C@@H](CCCNC(=N)N)C(N)=O)C(C)C)C(C)C)(C2)NC(=O)[C@H](CC(=O)O)NC(=O)[C@H](CC(C)C)NC1=O (single isomer, unassigned) [FP0758c, Ac-P-Q-R5-I-L-D-MB-H-V-R-R-V-W-R-NH2]	500 to 5000
CC[C@H](C)[C@@H]1NC(=O)[C@@](C)(NC(=O)[C@H](CCC(N)=O)NC(=O)[C@@H]2CCCN2C(C)=O)CCCCCC=CCN2CC[C@@](C(=O)N[C@@H](Cc3c[nH]cn3)C(=O)N[C@H](C(=O)N[C@@H](CCCNC(=N)N)C(=O)N[C@@H](CCCNC(=N)N)C(=O)N[C@H](C(=O)N[C@@H](Cc3c[nH]c4ccccc34)C(=O)N[C@@H](CCCNC(=N)N)C(N)=O)C(C)C)C(C)C)(C2)NC(=O)[C@H](CC(=O)O)NC(=O)[C@H](CC(C)C)NC1=O (single isomer, unassigned) [FP0763a, Ac-P-Q-S7-I-L-D-MB-H-V-R-R-V-W-R-NH2]	500 to 5000
CC[C@H](C)[C@@H]1NC(=O)[C@](C)(NC(=O)[C@H](CCC(N)=O)NC(=O)[C@@H]2CCCN2C(C)=O)CCCCC=CCN2CC[C@](C(=O)N[C@@H](Cc3c[nH]cn3)C(=O)N[C@H](C(=O)N[C@@H](CCCNC(=N)N)C(=O)N[C@@H](CCCNC(=N)N)C(=O)N[C@H](C(=O)N[C@@H](Cc3c[nH]c4ccccc34)C(=O)N[C@@H](CCCNC(=N)N)C(N)=O)C(C)C)C(C)C)(C2)NC(=O)[C@H](CC(=O)O)NC(=O)[C@H](CC(C)C)NC1=O (single isomer, unassigned) [FP0767a, Ac-P-Q-R6-I-L-D-MC-H-V-R-R-V-W-R-NH2]	500 to 5000
CC[C@H](C)[C@@H]1NC(=O)[C@](C)(NC(=O)[C@H](CCC(N)=O)NC(=O)[C@@H]2CCCN2C(C)=O)CCCCCC=CCN2CC[C@](C(=O)N[C@@H](Cc3c[nH]cn3)C(=O)N[C@H](C(=O)N[C@@H](CCCNC(=N)N)C(=O)N[C@@H](CCCNC(=N)N)C(=O)N[C@H](C(=O)N[C@@H](Cc3c[nH]c4ccccc34)C(=O)N[C@@H](CCCNC(=N)N)C(N)=O)C(C)C)C(C)C)(C2)NC(=O)[C@H](CC(=O)O)NC(=O)[C@H](CC(C)C)NC1=O (single isomer, unassigned) [FP0768a, Ac-P-Q-R7-I-L-D-MC-H-V-R-R-V-W-R-NH2]	> 5000
CC[C@H](C)[C@@H]1NC(=O)[C@](C)(NC(=O)[C@H](CCC(N)=O)NC(=O)[C@@H]2CCCN2C(C)=O)CCCC=CCN(C)CC[C@](C)(C(=O)N[C@@H](Cc2c[nH]cn2)C(=O)N[C@H](C(=O)N[C@@H](CCCNC(=N)N)C(=O)N[C@@H](CCCNC(=N)N)C(=O)N[C@H](C(=O)N[C@@H](Cc2c[nH]c3ccccc23)C(=O)N[C@@H](CCCNC(=N)N)C(N)=O)C(C)C)C(C)C)NC(=O)[C@H](CC(=O)O)NC(=O)[C@H](CC(C)C)NC1=O (single isomer, unassigned) [FP0776a, Ac-P-Q-R5-I-L-D-MG-H-V-R-R-V-W-R-NH2]	500 to 5000

The next lines start with the values.

EC50 [nM]	Compound
100 to 500	CC[C@H](C)[C@@H]1NC(=O)[C@@](C)(NC(=O)[C@H](CCC(N)=O)NC(=O)[C@@H]2CCCN2C(C)=O)CCCCC=CCOC(=O)N2CC[C@@](C(=O)N[C@@H](Cc3c[nH]cn3)C(=O)N[C@H](C(=O)N[C@@H](CCCNC(=N)N)C(=O)N[C@@H](CCCNC(=N)N)C(=O)N[C@H](C(=O)N[C@@H](Cc3c[nH]c4ccccc34)C(=O)N[C@@H](CCCNC(=N)N)C(N)=O)C(C)C)C(C)C)(C2)NC(=O)[C@H](CC(=O)O)NC(=O)[C@H](CC(C)C)NC1=O (single isomer, unassigned) [FP0761c, Ac-P-Q-S6-I-L-D-MB-H-V-R-R-V-W-R-NH2]
100 to 500	CC[C@H](C)[C@@H]1NC(=O)[C@@](C)(NC(=O)[C@H](CCC(N)=O)NC(=O)[C@@H]2CCCN2C(C)=O)CCCCCC=CCOC(=O)N2CC[C@@](C(=O)N[C@@H](Cc3c[nH]cn3)C(=O)N[C@H](C(=O)N[C@@H](CCCNC(=N)N)C(=O)N[C@@H](CCCNC(=N)N)C(=O)N[C@H](C(=O)N[C@@H](Cc3c[nH]c4ccccc34)C(=O)N[C@@H](CCCNC(=N)N)C(N)=O)C(C)C)C(C)C)(C2)NC(=O)[C@H](CC(=O)O)NC(=O)[C@H](CC(C)C)NC1=O (single isomer, unassigned) [FP0763c, Ac-P-Q-S7-I-L-D-MB-H-V-R-R-V-W-R-NH2]
100 to 500	CC[C@H](C)[C@@H]1NC(=O)[C@](C)(NC(=O)[C@H](CCC(N)=O)NC(=O)[C@@H]2CCCN2C(C)=O)CCCCC=CCOC(=O)N2CC[C@](C(=O)N[C@@H](Cc3c[nH]cn3)C(=O)N[C@H](C(=O)N[C@@H](CCCNC(=N)N)C(=O)N[C@@H](CCCNC(=N)N)C(=O)N[C@H](C(=O)N[C@@H](Cc3c[nH]c4ccccc34)C(=O)N[C@@H](CCCNC(=N)N)C(N)=O)C(C)C)C(C)C)(C2)NC(=O)[C@H](CC(=O)O)NC(=O)[C@H](CC(C)C)NC1=O (single isomer, unassigned) [FP0767c, Ac-P-Q-R6-I-L-D-MC-H-V-R-R-V-W-R-NH2]
100 to 500	CC[C@H](C)[C@@H]1NC(=O)[C@](C)(NC(=O)[C@H](CCC(N)=O)NC(=O)[C@@H]2CCCN2C(C)=O)CCCCCC=CCOC(=O)N2CC[C@](C(=O)N[C@@H](Cc3c[nH]cn3)C(=O)N[C@H](C(=O)N[C@@H](CCCNC(=N)N)C(=O)N[C@@H](CCCNC(=N)N)C(=O)N[C@H](C(=O)N[C@@H](Cc3c[nH]c4ccccc34)C(=O)N[C@@H](CCCNC(=N)N)C(N)=O)C(C)C)C(C)C)(C2)NC(=O)[C@H](CC(=O)O)NC(=O)[C@H](CC(C)C)NC1=O (single isomer, unassigned) [FP0768c, Ac-P-Q-R7-I-L-D-MC-H-V-R-R-V-W-R-NH2]
